Legend:
Type in all cases: in vivo, mouse
G1H-G93A transgenic mice [1] = assay: Exercise tolerance test: extension reflex test; details: for Extension reflex test score: 5 mg/kg oral daily from 80th day (before onset), score 0-2
Method: (§1) The following five kinds of exercise tolerance tests were conducted every fifth day from the 70th day after birth to evaluate the ability to exercise in the respective exercise tolerance tests. That is, the days for the exercise tolerance tests were every fifth days, such as the 70th day, 75th day, 80th day, 85th day and so on, after birth. The exercise tolerance tests were conducted throughout the survival period, and the post-mortem evaluation was based on the definitions of the following five kinds of exercise tolerance tests.
As for extension reflex, extension of the hindlimbs is normally observed when a mouse is suspended in the air by its tail.
The evaluation of extension reflex test of the mice was performed based on the following criteria: Score 0=Extension reflex is recognized in both of the hindlimbs; Score 1=Extension reflex is recognized only one hindlimb; and Score 2=Extension reflex is not recognized in both of the hindlimbs. The post-mortem evaluation of the extension reflex test is defined as score 2.

G1H-G93A transgenic mice [2] = assay: Exercise tolerance test: inclined plane test; details: for Inclined plane test score: 5 mg/kg oral daily from 80th day (before onset), score 0-3, 5 mg/kg
Method: as §1
The apparatus used in the inclined plane test is an apparatus allowing a wooden board to be fixed at the respective angles of 45°, 65° and 80° from a horizontal plane. A mouse is placed in the posture of head-up position on the wooden board inclined at each angle and the mouse is allowed to maintain this position for 5 seconds without falling downward. In the evaluation method of the inclined plane test for each mouse, the number of seconds (TA seconds: 5 seconds or less) during which the position could be maintained without falling downward is measured at each of the angles (A) of 45°, 65° and 80°, and then the total sum value of the products of the angle (A) and the number of seconds (TA) during which the position could be maintained: Σ [Angle(A)×Time (TA)] is calculated. Since a normal mouse is capable of maintaining the position on the wooden board inclined to the respective angles for 5 seconds, the sum value of Σ [Angle(A)×Time (TA)] will be 80×5+65×5+45×5=950. The evaluation of the inclined plane test for the mouse was performed based on the following criteria: Score 0=950; Score 1=over 550 to less than 950; Score 2=over 225 to 550; and Score 3=225 and below. The post-mortem evaluation of the inclined plane test is defined as score 3.

G1H-G93A transgenic mice [3] = assay: Exercise tolerance test: footprint test; details: 5 mg/kg oral daily from 80th day (before onset), score 0-4
Method: as §1
Both hindlimbs of a mouse are dipped in a black ink bottle, and then the mouse is allowed to walk on white paper. The footprints of the two hindlimbs of the mouse after the walking are analyzed. […] The post-mortem evaluation of the footprint test is defined as score 4.

Cc1nc(-c2ccc(OCC(C)C)c(C#N)c2)sc1C(=O)O [compound (c), 2-[3-cyano-4-(2-methylpropoxy)phenyl]-4-methyl-5-thiazolecarboxylic acid] was tested, and the “Extension reflex test score” value (G1H-G93A transgenic mice [1]; 70th day after birth, 5 mg/kg) was 0.0±0.0, the “Extension reflex test score” value (G1H-G93A transgenic mice [1]; 75th day after birth, 5 mg/kg) was 0.0±0.0 and the “Extension reflex test score” value (G1H-G93A transgenic mice [1]; 80th day after birth, 5 mg/kg) was 0.0±0.0. The “Extension reflex test score” value (G1H-G93A transgenic mice [1]; 85th day after birth, 5 mg/kg) was 0.0±0.0, the “Extension reflex test score” value (G1H-G93A transgenic mice [1]; 90th day after birth, 5 mg/kg) was 0.0±0.0 and the “Extension reflex test score” value (G1H-G93A transgenic mice [1]; 95th day after birth, 5 mg/kg) was 0.0±0.0. For the same compound, the “Extension reflex test score” value (G1H-G93A transgenic mice [1]; 100th day after birth, 5 mg/kg) was 0.0±0.0, the “Extension reflex test score” value (G1H-G93A transgenic mice [1]; 105th day after birth, 5 mg/kg) was 0.0±0.0 and the “effect in extension reflex test as compared to placebo group” value (G1H-G93A transgenic mice [1]; 105th, 110th, 115th and 120th day, 5 mg/kg oral daily from 80th day after birth, Mann-Whitney's U test) was “significant effects”. For the same compound, the “Extension reflex test score” value (G1H-G93A transgenic mice [1]; 110th day after birth, 5 mg/kg) was 0.1±0.3, the “Extension reflex test score” value (G1H-G93A transgenic mice [1]; 115th day after birth, 5 mg/kg) was 0.5±0.5 and the “Extension reflex test score” value (G1H-G93A transgenic mice [1]; 120th day after birth, 5 mg/kg) was 1.1±0.6. For the same compound, the “Extension reflex test score” value (G1H-G93A transgenic mice [1]; 125th day after birth, 5 mg/kg) was 1.7±0.5, the “Extension reflex test score” value (G1H-G93A transgenic mice [1]; 130th day after birth) was 2.0 ± 0.0 and the “Extension reflex test score” value (G1H-G93A transgenic mice [1]; 135th day after birth) was 2.0 ± 0.0. The “Extension reflex test score” value (G1H-G93A transgenic mice [1]; 140th day after birth) was 2.0 ± 0.0, the “Extension reflex test score” value (G1H-G93A transgenic mice [1]; from the 130th day to 140th day after birth) was 2.0±0.0 and the “Inclined plane test score” value (G1H-G93A transgenic mice [2]; 70th day after birth) was 0.0±0.0. The “Inclined plane test score” value (G1H-G93A transgenic mice [2]; 75th day after birth) was 0.0±0.0, the “Inclined plane test score” value (G1H-G93A transgenic mice [2]; 80th day after birth) was 0.0±0.0 and the “Inclined plane test score” value (G1H-G93A transgenic mice [2]; 85th day after birth) was 0.0±0.0. The “Inclined plane test score” value (G1H-G93A transgenic mice [2]; 90th day after birth) was 0.0±0.0, the “Inclined plane test score” value (G1H-G93A transgenic mice [2]; 95th day after birth) was 0.0±0.0 and the “Inclined plane test score” value (G1H-G93A transgenic mice [2]; 100th day after birth) was 0.0±0.0. For the same compound, the “Inclined plane test score” value (G1H-G93A transgenic mice [2]; 105th day after birth) was 0.0±0.0, the “Inclined plane test score” value (G1H-G93A transgenic mice [2]; 110th day after birth) was 0.0±0.0 and the “effect in inclined plane test as compared to placebo group” value (G1H-G93A transgenic mice [2]; 110th, 115th, 120th, 125th and 130th day, 5 mg/kg oral daily from 80th day after birth, Mann-Whitney's U test) was “significant effects”. The “Inclined plane test score” value (G1H-G93A transgenic mice [2]; 115th day after birth) was 0.1±0.3, the “Inclined plane test score” value (G1H-G93A transgenic mice [2]; 120th day after birth) was 0.8±0.6 and the “Inclined plane test score” value (G1H-G93A transgenic mice [2]; 125th day after birth) was 1.2±0.8. The “Inclined plane test score” value (G1H-G93A transgenic mice [2]; 130th day after birth) was 2.3±0.7, the “Inclined plane test score” value (G1H-G93A transgenic mice [2]; 135th day after birth) was 2.9±0.3 and the “Inclined plane test score” value (G1H-G93A transgenic mice [2]; 140th day after birth) was 3.0±0.0. The Footprint test score (G1H-G93A transgenic mice [3]; 70th day after birth) was 0.0±0.0, the Footprint test score (G1H-G93A transgenic mice [3]; 75th day after birth) was 0.0±0.0 and the Footprint test score (G1H-G93A transgenic mice [3]; 80th day after birth) was 0.0±0.0. For the same compound, the Footprint test score (G1H-G93A transgenic mice [3]; 85th day after birth) was 0.0±0.0, the Footprint test score (G1H-G93A transgenic mice [3]; 90th day after birth) was 0.0±0.0 and the Footprint test score (G1H-G93A transgenic mice [3]; 95th day after birth) was 0.0±0.0. For the same compound, the Footprint test score (G1H-G93A transgenic mice [3]; 100th day after birth) was 0.0±0.0, the Footprint test score (G1H-G93A transgenic mice [3]; 105th day after birth) was 0.0±0.0 and the Footprint test score (G1H-G93A transgenic mice [3]; 110th day after birth) was 0.1±0.3. The Footprint test score (G1H-G93A transgenic mice [3]; 115th day after birth) was 0.7±0.8, the Footprint test score (G1H-G93A transgenic mice [3]; 120th day after birth) was 1.6±1.0 and the Footprint test score (G1H-G93A transgenic mice [3]; 125th day after birth) was 2.7±0.5. It also gave a Footprint test score (G1H-G93A transgenic mice [3]; 130th day after birth) of 3.3±0.5, a Footprint test score (G1H-G93A transgenic mice [3]; 135th day after birth) of 3.9±0.3 and a Footprint test score (G1H-G93A transgenic mice [3]; 140th day after birth) of 4.0±0.0.

Reference: patent publication US8318792B2, “Therapeutic agent for amyotrophic lateral sclerosis” (Nippon Medical School Foundation, priority 2006, dated 2012)
